Experimental data: ChEMBL document CHEMBL6096716, “Second-Generation Cap Analogue Prodrugs for Targeting Aberrant Eukaryotic Translation Initiation Factor 4E Activity in Cancer” (ACS Med Chem Lett, 2025)
Each block holds one molecule with its values, some of them ahead of it. Calls of active or inactive are those of the source. No cut-off for these calls is given here.

Assays:
[1] = test system: A2058; assay: Effect on c-Myc expression in human A2058 cells incubated for 6 hrs by Western blot analysis; format: functional, cell-based
[2] = test system: A-375; assay: Antiproliferative activity against human A-375 cells incubated for 48 hrs by Celltiter-glo assay; format: functional, cell-based; settings: A-375, 48 h
[3] = test system: A2058; assay: Downregulation of CCND1 expression in human A2058 cells incubated for 6 hrs by Western blot analysis; format: functional, cell-based
[4] = test system: A2058; assay: Antiproliferative activity against human A2058 cells harbouring BRAF V600E mutant assessed as cell death incubated for 48 hrs by Celltiter-glo assay; format: functional, cell-based; settings: for EC50: A2058, 48 h; for Activity: dose 10-60 µM
[5] = test system: A2058; assay: Downregulation of ODC1 expression in human A2058 cells incubated for 6 hrs by Western blot analysis; format: functional, cell-based
[6] = test system: SK-MEL-2; assay: Antiproliferative activity against human SK-MEL-2 cells at 1.0 to 1.8 uM incubated for 48 hrs by Celltiter-glo assay; format: functional, cell-based; settings: dose 1-1.8 µM
[7] = test system: A2058; assay: Downregulation of CCND3 expression in human A2058 cells incubated for 6 hrs by Western blot analysis; format: functional, cell-based
[8] = test system: A2058; assay: Antiproliferative activity against human A2058 cells harbouring BRAF V600E mutant assessed as cell death at 50 uM incubated for 48 hrs by Celltiter-glo assay; format: functional, cell-based
[9] = target: T1, Eukaryotic translation initiation factor 4E (Homo sapiens, UniProt P06730); assay: Induction of thermal stabilization of eIF4E in human HeLa cell lysates incubated for 1 hr at 42 to 52 degreeC by CETSA based Western blot analysis; format: subcellular
T1 sequence (P06730 whole entry): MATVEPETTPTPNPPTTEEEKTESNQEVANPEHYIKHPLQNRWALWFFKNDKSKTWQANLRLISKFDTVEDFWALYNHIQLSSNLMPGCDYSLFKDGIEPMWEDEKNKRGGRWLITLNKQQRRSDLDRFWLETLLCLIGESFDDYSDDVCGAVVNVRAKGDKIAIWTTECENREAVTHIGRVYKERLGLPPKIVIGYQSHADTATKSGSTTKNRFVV

[10] = target: T1, Eukaryotic translation initiation factor 4E; assay: Competitive inhibition of human 10 his-tagged eIF4E extracted from Escherichia coli BL21 (DE3) cells incubated for 40 mins by fluorescence polarization assay

EC50 [2]: 54 µM
Compound: CC(C)(C)C(=O)OCOP(=O)(CCc1cccc(Cn2c[n+](Cc3cc4cc(Cl)ccc4o3)c3c(=O)[nH]c(N)nc32)c1)OCOC(=O)C(C)(C)C
Activity [1]: inactive
Activity [3]: Active
EC50 [4]: 40 µM
Activity [4]: Dose-dependent-effect
Activity [5]: Active
Activity [6]: inactive
Activity [7]: Active
Activity [8]: Active; Compound Showed Near Complete Cell Death

Activity [9]: Active
IC50 [10]: 4.1 µM
Compound: Nc1nc2c(c(=O)[nH]1)[n+](Cc1cc3cc(Cl)ccc3o1)cn2Cc1cccc(CCP(=O)(O)O)c1

Compound: CC(C)(C)C(=O)OCOP(=O)(Cc1cccc(Cn2c[n+](Cc3cc4cc(Cl)ccc4o3)c3c(=O)[nH]c(N)nc32)c1)OCOC(=O)C(C)(C)C
Activity [8]: Active; Compound Found To Be Less Active

IC50 [10]: 17.2 µM
Compound: Nc1nc2c(c(=O)[nH]1)[n+](Cc1cc3cc(Cl)ccc3o1)cn2Cc1ccccc1CCP(=O)(O)O

Compound: CC(C)(C)C(=O)OCOP(=O)(CCc1ccccc1Cn1c[n+](Cc2cc3cc(Cl)ccc3o2)c2c(=O)[nH]c(N)nc21)OCOC(=O)C(C)(C)C
EC50 [4]: 51.3 µM
Activity [4]: Dose-dependent-effect

Compound: CC(C)(C)C(=O)OCOP(=O)(CCc1ccc(Cn2c[n+](Cc3cc4cc(Cl)ccc4o3)c3c(=O)[nH]c(N)nc32)cc1)OCOC(=O)C(C)(C)C
Activity [4]: inactive

Compound: CC(C)(C)C(=O)OCOP(=O)(CCc1cccc(-n2c[n+](Cc3cc4cc(Cl)ccc4o3)c3c(=O)[nH]c(N)nc32)c1)OCOC(=O)C(C)(C)C
Activity [8]: Active

Compound: CC(C)(C)C(=O)OCOP(=O)(OCOC(=O)C(C)(C)C)c1cccc(Cn2c[n+](Cc3cc4cc(Cl)ccc4o3)c3c(=O)[nH]c(N)nc32)c1
Activity [8]: Active; Compound Found To Be Less Active
